# In US12410179B2, “Modulators of TNF alpha activity and uses thereof” (RayThera, Inc., priority 2023, dated 2025):
# Key:
# [1] = tested on: human induced pluripotent stem cell-derived cardiomyocytes (hiPSC-CMs); settings: 10 μM
# Method: The MEA study was designed to assess the in vitro inhibitory effect of compounds on extracellular field potential (EFP) of human induced pluripotent stem cell-derived cardiomyocytes (hiPSC-CMs) using the Maestro Pro multielectrode arrays system. The concentration response relationship was determined for each compound at 10 μM and 3 μM in duplicate to calculate the % change in EFP parameters.
# hiPSC-CMs (Help Stem Cell Innovations Co.) were seeded in fibronectin-coated CytoView MEA 96-White plate at 20000 cells/well. The next day 2/3 of the plating medium volume was removed and replaced by maintenance media. Half of the maintenance medium was removed and replaced every 2 days. On day 6, compounds were made 2× final concentration (20 μM and 6 μM) in maintenance media. Half of the medium was removed from the wells and an equal volume of the appropriate treatment mix was added, and the EFP signal was recorded. […] Data that meet the above criteria for EFP recording quality were further analyzed as described in the following steps: […]
# Axis Navigator 2.0.4. software was used to extract the peak current from the original data. The percentage of amplitude change from baseline was calculated using the following equation.
# Two important readouts in MEA assay are used to evaluate risk of QT prolongation. […]
# TNFα [2] = molecular target: T1, TNFα (Homo sapiens, UniProt P01375); experiment: HEK-Blue hTNFα reporter assay; format: cell-based; set-up: purchased R&D biosystem (R&D Systems) 210-TA-020/CF; settings: HEK-Blue hTNFα reporter cells; for Emax: read-out: TNFα reporter, Emax
# T1 sequence (P01375 77-233 limits assumed): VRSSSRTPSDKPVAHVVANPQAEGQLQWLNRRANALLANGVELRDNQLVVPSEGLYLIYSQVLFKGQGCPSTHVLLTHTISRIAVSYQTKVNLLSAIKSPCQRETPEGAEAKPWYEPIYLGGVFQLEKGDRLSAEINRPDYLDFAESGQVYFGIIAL
# Summary of the method: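 IC50 from 4-parameter regression of % inhibition, with OD620 of secreted SEAP (QUANTI-Blue, 1 h) referenced to cells with and without hTNFα. HEK-Blue TNFα reporter cells were exposed 24 h to compound premixed 1 h with hTNFα ([…]).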
# TNFα [3] = molecular target: T1, TNFα; experiment: Human dermal fibroblast cell potency assay (IL-8 HTRF); format: cell-based; set-up: purchased R&D biosystem (R&D Systems) 210-TA-020/CF; settings: human dermal fibroblasts, hTNFα 10 ng/mL, 24 h; for Emax: read-out: HDF_IL-8, Emax; for IC50: read-out: HDF_IL-8, IC50
# Method: The potency of compounds was examined in Human dermal fibroblast cells (HDF). […] When used for assay, 40 μL of HDF suspension (2000 cell/well) was seeded into each well of 384-well plates (Corning 3764). After overnight culture, replenish fresh culture medium with 5% fetal bovine serum. A serial dilution of work solution of tested compound was made in DMSO with 1000× of final concentration, and 50 nL of compound DMSO solution was transferred into another set of 384-well plates by Echo, and incubated with 10 μL of recombinant hTNFα (R&D biosystem, Cat #210-TA-020/CF) for 1 h at 37° C. The compound/hTNFα mixture was then transferred to the 384-plate containing HDF, and then incubated at 37° C. with 5% CO2 for 24 h. The final concentration of hTNFα is 10 ng/mL.
# After incubation, 16 μL of induced cell supernatant was transferred to a new 384-well Optiplate well to mix with 4 μL of IL-8 antibody cocktail (Revvity #62HIL08PEH). After overnight incubation, the plate was read using EnSight™ Multimode Microplate Reader (Perkin Elmer) for HTRF signal.
# The percentage of inhibition was calculated by the following formula: % inhibition=(positive control−Sample)/(positive control−negative control)*100
# Positive control: HTRF reading of cells with hTNFα stimulation.
# Negative control: HTRF reading of cells without hTNFα stimulation.
# Sample: HTRF reading of cells with compound at specific concentration and hTNFα stimulation
# The % inhibition was plotted against compound concentration in logarithmic scale and the IC50 was rendered using 4-parameter nonlinear regression (GraphPad Prism).
# TNFα [4] = molecular target: T1, TNFα; experiment: TNFα human whole blood screening assay (CD11b on granulocytes, zymosan challenge); format: cell-based; set-up: a human whole blood assay driven by endogenously expressed TNFα; from tissue; host or cells: human whole blood; settings: human whole blood IC50 multiplied by unbound fraction from plasma protein binding; read-out: CD11b in hWB, free IC50
# Method: The compounds according to the Examples were assessed in a human whole blood assay driven by endogenously expressed TNFα by measuring the expression of CD11b on granulocytes in human whole blood challenged with zymosan. A serial diluted compound was pre-incubated with human whole blood for 1 h at 37° C./5% CO2. Zymosan (Invivogen, Tlrl-zyn) was added (final assay concentration […] in a total volume of 100 μl) with thorough mixing and incubated for 3 h at 37° C./5% CO2. The samples were then incubated with 10 μl antibody cocktail containing APC-conjugated anti-human CD45 antibody (Biolegend, cat #304012) and PE-conjugated anti-human CD11b antibody (Biolegend, cat #101208) for 30 min at 4° C. The blood was fixed/lysed for 10-15 min at 37° C. using FACS/lysing solution (BD sciences, cat #558049) and analyzed with CytoFlex S (Beckman Coulter). The number of single cells (SSC-A, SSC—W) positive for CD45 and expressing CD11b was determined using FlowJo software (BD Biosciences). Inhibition of CD11b activation was calculated against DMSO control. […]
# A calculated IC50 for the free compound (free IC50) that considers the extent of fraction unbound in blood was determined by multiplying the IC50 generated from the human whole blood screening assay by the unbound fraction, generated from the plasma protein binding assay.
# [5] = Caco-2 assay (permeability); format: in vitro ADME; settings: human, Caco-2, pH 7.4; for Papp A→B at 2 h, 5 μM: apical to basolateral; for efflux ratio at 2 h, 5 μM: read-out: Caco-2, ER (efflux ratio)
# Method: Cells were cultivated for 14-18 days in a cell culture incubator at 37° C., 5% CO2, 95% relative humidity. Cell culture medium was replaced every other day, beginning no later than 24 hours after initial plating.
# 10 mM stock solutions of test compounds were prepared in DMSO. The stock solutions of positive controls were prepared in DMSO at the concentration of 10 mM.
# 1) Medium was removed from the reservoir and each Transwell insert and replaced with prewarmed fresh culture medium.
# 2) Transepithelial electrical resistance (TEER) across the monolayer was measured using Millicell Epithelial Volt-Ohm measuring system (Millipore, USA).
# 3) The Plate was returned to the incubator once the measurement was done.
# 1) The Caco-2 plate was removed from the incubator and washed twice with pre-warmed HBSS (10 mM HEPES, pH 7.4), and then incubated at 37° C. for 30 minutes.
# The final concentration of DMSO in the incubation system was 0.5%.
# 3) To determine the rate of drug transport in the apical to basolateral direction.
# 4) To determine the rate of drug transport in the basolateral to apical direction.
# 5) The plates were incubated at 37° C. for 2 hours.
# 6) At the end of the incubation, 50 μL samples from donor sides (apical compartment for Ap→Bl flux, and basolateral compartment for Bl→Ap) and receiver sides (basolateral compartment for Ap→Bl flux, and apical compartment for Bl→Ap) were transferred to wells of a new 96-well plate, followed by the addition of 4 volume of cold methanol containing appropriate internal standards (IS). Samples were vortexed for 5 minutes and then centrifuged at 3,220 g for 40 minutes. An aliquot of 100 μL of the supernatant was mixed with an appropriate volume of ultra-pure water before LC-MS/MS analysis.
# 100 μL of the Lucifer yellow solution was added to each Transwell insert (apical compartment), followed by filling the wells in the receiver plate (basolateral compartment) with 300 μL of HBSS (10 mM HEPES, pH 7.4).
# [6] = SEAP readout, read-out: IC50 Range
Structure (SMILES),Emax (TNFα [2]) [%],"IC50 (TNFα [2]; read-out: TNFα reporter, IC50) [nM]",IC50 (TNFα [2]; [6]) [nM],other results
"CN1C(=O)c2cccc(OC(F)F)c2[C@H]2C[C@@H]1c1nc3ccc(-c4cnc(C5(N)CCC5)nc4)cc3n12 [Comp. Ex #1, reference compound]",96,4.8,–,Cardiomyocytes FPDc prolong. [1]: > 20%; EAD (early afterdepolarization) [1]: EAD; Emax (TNFα [3]): 93%; IC50 (TNFα [3]): 6.7 nM; IC50 (TNFα [4]): 9.3 nM
"CN1C(=O)c2cccc(OC(F)F)c2[C@H]2C[C@@H]1c1nc3ccc(-c4ccc(P(C)(C)=O)nc4)cc3n12 [Comp. Ex #4, reference compound]",82,7.9,–,"Papp A→B at 2 h, 5 μM [5]: 0.6 ×10⁻⁶ cm/s; efflux ratio at 2 h, 5 μM [5]: 47.5"
CN1C(=O)c2cccc(OC(F)F)c2[C@H]2C[C@@H]1c1nn3ccc(-c4cnc(C5(N)CCC5)nc4)cc3c12 [Example 15],95,4.1,< 25,Emax (TNFα [3]): 97%; IC50 (TNFα [3]): 2.8 nM; IC50 (TNFα [4]): 2.1 nM
CN1C(=O)c2cccc(OC(F)F)c2[C@H]2C[C@@H]1c1nn3ccc(-c4ccc(P(C)(C)=O)nc4)cc3c12 [Example 20],89,3.8,< 25,"Papp A→B at 2 h, 5 μM [5]: 1.7 ×10⁻⁶ cm/s; efflux ratio at 2 h, 5 μM [5]: 22.8"
CN1C(=O)c2cccc(OC(F)F)c2[C@H]2C[C@@H]1c1nn3ccc(-c4cnc(C(C)(C)N)nc4)cc3c12 [Example 324],–,–,< 25,–
[2H]C([2H])([2H])N1C(=O)c2cccc(OC(F)F)c2[C@H]2C[C@@H]1c1nn3ccc(-c4cnc(C(C)(C)N)c(F)c4)cc3c12 [Example 325],–,–,< 25,–
[2H]C([2H])([2H])N1C(=O)c2cccc(OC(F)F)c2[C@H]2C[C@@H]1c1nn3ccc(-c4cnc(C(C)(C)N)c(F)c4)nc3c12 [Example 326],–,–,< 25,–
[2H]C([2H])([2H])N1C(=O)c2cccc(OC(F)F)c2[C@H]2C[C@@H]1c1nn3ccc(-c4cnc5c(c4)CC[C@]5(C)N)cc3c12 [Example 327],–,–,< 25,–
[2H]C([2H])([2H])N1C(=O)c2cccc(OC(F)F)c2[C@H]2C[C@@H]1c1nn3ccc(-c4cnc5c(c4)CC[C@@]5(C)N)cc3c12 [Example 328],–,–,< 25,–
C[C@]1(O)C[C@](N)(c2ncc(-c3ccn4nc5c(c4c3)[C@@H]3C[C@H]5N(C4CC4)C(=O)c4cccc(OC(F)F)c43)cn2)C1 [Example 329],–,–,< 25,–
